From patent publication US7135466B2 (Kirin Beer Kabushiki Kaisha, priority 1999, dated 2006)
Like-named read-outs stand apart in the source and are kept apart here.

What was measured:
[1] = biological target: T1, PDGF-Ra (Homo sapiens, UniProt P16234); experiment: Inhibitory activity against PDGF-Ra phosphorylation by PDGF-AA stimulation using G292; assay type: cell-based; conditions: for IC50: > means inhibition at indicated concentration not more than 50%, < and << not less than 50%, read-out: PDGF (E) IC50; for inhibition at 0.1 µM: G292, figure within parentheses in >100( ), at 100 nM, read-out: PDGF (E) inhibition (%) at 100 nM
T1 construct: host or cells: G-292 human osteosarcoma cells
T1 sequence (P16234 24-1089): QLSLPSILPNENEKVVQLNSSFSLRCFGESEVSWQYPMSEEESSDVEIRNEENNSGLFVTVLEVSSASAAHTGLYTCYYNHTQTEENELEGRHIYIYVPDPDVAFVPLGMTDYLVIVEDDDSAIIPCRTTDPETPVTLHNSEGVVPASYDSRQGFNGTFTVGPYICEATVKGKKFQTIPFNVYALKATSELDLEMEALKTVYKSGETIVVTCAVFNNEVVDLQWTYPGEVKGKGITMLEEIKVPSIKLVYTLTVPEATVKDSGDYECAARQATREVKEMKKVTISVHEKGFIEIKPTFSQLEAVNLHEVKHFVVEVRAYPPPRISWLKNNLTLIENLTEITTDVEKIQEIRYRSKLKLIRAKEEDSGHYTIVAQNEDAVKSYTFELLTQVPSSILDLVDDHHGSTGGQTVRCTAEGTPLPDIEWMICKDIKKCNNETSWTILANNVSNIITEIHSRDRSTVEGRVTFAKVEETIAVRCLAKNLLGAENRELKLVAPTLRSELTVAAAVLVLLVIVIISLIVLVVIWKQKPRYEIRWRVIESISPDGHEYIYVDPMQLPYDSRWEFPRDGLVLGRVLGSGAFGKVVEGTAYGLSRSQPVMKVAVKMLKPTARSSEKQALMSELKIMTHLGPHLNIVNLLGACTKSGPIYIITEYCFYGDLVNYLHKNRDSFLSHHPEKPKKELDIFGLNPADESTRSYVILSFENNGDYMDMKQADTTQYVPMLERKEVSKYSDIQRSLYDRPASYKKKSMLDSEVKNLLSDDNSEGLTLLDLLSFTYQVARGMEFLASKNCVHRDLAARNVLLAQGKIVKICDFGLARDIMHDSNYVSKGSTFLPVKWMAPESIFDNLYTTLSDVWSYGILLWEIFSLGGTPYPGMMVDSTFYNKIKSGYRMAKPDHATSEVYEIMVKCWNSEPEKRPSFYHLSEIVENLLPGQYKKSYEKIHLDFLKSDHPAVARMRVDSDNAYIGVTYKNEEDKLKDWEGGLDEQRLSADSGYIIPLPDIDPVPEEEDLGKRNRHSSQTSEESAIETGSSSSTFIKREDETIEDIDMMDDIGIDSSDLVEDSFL
Summary of the method: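 G-292 human osteosarcoma cells, serum-starved overnight in 0.1% FBS, were pretreated with compound in DMSO for 1 hr at 37 °C, then stimulated with 50 ng/ml PDGF-AA for 5 min. Lysates were captured on anti-phosphotyrosine PY-20 plates and probed with anti-PDGF-Ra plus HRP secondary; absorbance read at 450 nm.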

[2] = biological target: T2, c-kit (Homo sapiens, UniProt P10721); experiment: Inhibitory activity against c-kit autophosphorylation (MO7e cells, h-SCF); assay type: cell-based; conditions: for IC50: MO7e cells, read-out: c-kit IC50; for inhibition at 1 µM: Mo7e, at 1000 nM
T2 construct: MO7e (human megakaryocytic leukemia cell line) which had been arrested for 20 hr; endogenous in cells; host or cells: MO7e human megakaryocytic leukemia cell line
T2 sequence (P10721 26-976): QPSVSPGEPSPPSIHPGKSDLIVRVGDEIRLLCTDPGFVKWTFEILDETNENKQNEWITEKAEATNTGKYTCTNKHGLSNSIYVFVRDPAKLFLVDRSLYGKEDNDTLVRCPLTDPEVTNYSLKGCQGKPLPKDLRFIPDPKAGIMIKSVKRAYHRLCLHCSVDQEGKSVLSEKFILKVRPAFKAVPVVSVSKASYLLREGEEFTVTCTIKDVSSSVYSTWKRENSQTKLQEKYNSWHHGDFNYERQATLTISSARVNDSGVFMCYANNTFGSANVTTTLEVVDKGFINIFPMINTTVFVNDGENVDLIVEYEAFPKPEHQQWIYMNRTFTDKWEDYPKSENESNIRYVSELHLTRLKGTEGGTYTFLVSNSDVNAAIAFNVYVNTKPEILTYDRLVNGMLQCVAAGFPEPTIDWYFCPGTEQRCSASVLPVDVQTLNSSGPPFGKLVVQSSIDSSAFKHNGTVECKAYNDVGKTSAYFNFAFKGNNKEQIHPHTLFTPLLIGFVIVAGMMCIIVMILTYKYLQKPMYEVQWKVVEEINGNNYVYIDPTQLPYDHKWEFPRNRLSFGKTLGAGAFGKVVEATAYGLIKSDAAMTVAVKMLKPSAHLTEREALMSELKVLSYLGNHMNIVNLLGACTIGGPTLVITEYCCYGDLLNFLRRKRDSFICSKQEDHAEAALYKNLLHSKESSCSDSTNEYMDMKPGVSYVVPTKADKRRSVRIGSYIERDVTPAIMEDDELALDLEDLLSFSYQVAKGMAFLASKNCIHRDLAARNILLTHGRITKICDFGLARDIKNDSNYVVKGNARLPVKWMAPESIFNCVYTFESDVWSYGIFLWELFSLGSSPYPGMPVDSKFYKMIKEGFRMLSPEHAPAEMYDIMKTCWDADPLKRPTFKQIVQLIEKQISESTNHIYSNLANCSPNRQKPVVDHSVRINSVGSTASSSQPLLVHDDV
Summary of the method: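 First, human megakaryocytic leukemia MO7e cells arrested 20 hr receive compound for one hour. Second, SCF stimulation (50 ng/ml) runs 5 min, after which cells are solubilized. Third, tyrosine-phosphorylated c-kit in the lysate is quantified by sandwich ELISA with absorbance at 450 nm.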

[3] = figure within parentheses in −( ) or >1000( )

## COc1cc2ncnc(Oc3ccc(OC(=O)c4ccccc4)cc3)c2cc1OC [Example 772, 4-[(6,7-Dimethoxy-4-quinazolinyl)oxy]phenyl benzoate]
[1]
  IC50: > 100 nM
  inhibition at 0.1 µM: 13%
[2]; 50 ng/ml h-SCF
  IC50: 550 nM

## 3-[(4-Methylphenyl)sulfanyl]ethyl N-{4-[(6,7-dimethoxy-4-quinolyl)oxy]-2,5-dimethylphenyl}carbamate [Example 139]
[1]; Pharmacological Test Example 1
  IC50: 57 nM
[2]; h-SCF 50 ng/ml
  IC50: 80 nM

## COc1cc2ncnc(Oc3ccc(NC(=O)OCc4ccccc4C)c(Cl)c3)c2cc1OC [Example 320, 2-Methylbenzyl N-{2-chloro-4-[(6,7-dimethoxy-4-quinazolinyl)oxy]phenyl}carbamate]
[1]; Pharmacological Test Example 1
  IC50: < 10 nM
[2]; h-SCF 50 ng/ml
  IC50: 596 nM

## CCOc1ccc(C(=O)NC(=S)Nc2ccc(Oc3ncnc4cc(OC)c(OC)cc34)cc2)cc1 [Example 716, N-{4-[(6,7-Dimethoxy-4-quinazolinyl)oxy]phenyl}-N′-(4-ethoxybenzoyl)thiourea]
[1]
  IC50: 11 nM
[2]; [3]
  inhibition at 1 µM: 19%

## COc1cc2nccc(Oc3ccc(NC(=O)NN4CCCCC4)cc3)c2cc1OC [Example 592, N-{4-[(6,7-Dimethoxy-4-quinolyl)oxy]phenyl}-N′-(1-piperidinyl)urea]
[1]
  IC50: 23 nM
[2]; 50 ng/ml h-SCF
  IC50: 472 nM

## COc1cc2nccc(Oc3ccc(NC(=S)NC(=O)c4cc(C)oc4C)cc3Cl)c2cc1OC [Example 699, N-{3-Chloro-4-[(6,7-dimethoxy-4-quinolyl)oxy]phenyl}-N′-[(2,5-dimethyl-3-furyl)carbonyl]thiourea]
[1]
  IC50: 13 nM
[2]; [3]
  inhibition at 1 µM: 29%

## COc1cc2nccc(Oc3ccc(NC(=S)NC(=O)c4ccc(F)cc4F)c(Cl)c3)c2cc1OC [Example 1202, N-{2-Chloro-4-[(6,7-dimethoxy-4-quinolyl)oxy]phenyl}-N′-(2,4-difluorobenzoyl)thiourea]
[1]
  IC50: 50 nM
[2]; figure in parentheses in −( )
  inhibition at 1 µM: 15%

## COc1cc2nccc(Oc3ccc(NC(=O)OCc4ccc(F)cc4)c(C)c3C)c2cc1OC [Example 9, 4-Fluorobenzyl N-{4-[(6,7-dimethoxy-4-quinolyl)oxy]-2,3-dimethylphenyl}carbamate]
[1]; Pharmacological Test Example 1
  IC50: < 10 nM
[2]; h-SCF 50 ng/ml
  IC50: 45 nM

## CCCC(CCN1CCCCC1)OC(=O)Nc1cc(C)c(Oc2ccnc3cc(OC)c(OC)cc23)cc1C (centres unmarked) [Example 446, 1-(2-Piperidinoethyl)butyl N-{4-[(6,7-dimethoxy-4-quinolyl)oxy]-2,5-dimethylphenyl}carbamate]
[1]
  IC50: > 100 nM
  inhibition at 0.1 µM: 39%
[2]; [3]
  inhibition at 1 µM: 40%

## COc1cc2nccc(Oc3cc(C)c(NC(=O)OC4CCCC4)cc3C)c2cc1OC [Example 364, Cyclopentyl N-{4-[(6,7-dimethoxy-4-quinolyl)oxy]-2,5-dimethylphenyl}carbamate]
[1]; Pharmacological Test Example 1
  IC50: 29 nM
[2]; h-SCF 50 ng/ml
  IC50: 98 nM

## COc1cc2nccc(Oc3cc(C)c(NC(=S)NCCN4CCCC4)cc3C)c2cc1OC [Example 541, N-{4-[(6,7-Dimethoxy-4-quinolyl)oxy]-2,5-dimethylphenyl}-N′-[2-(1-pyrrolidinyl)ethyl]thiourea]
[1]
  IC50: 70 nM
[2]; 50 ng/ml h-SCF
  IC50: 794 nM

## COc1ccc(OC)c(COC(=O)Nc2ccc(Oc3ccnc4cc(OC)c(OC)cc34)cc2)c1 [Example 67, 2,5-Dimethoxybenzyl N-{4-[(6,7-dimethoxy-4-quinolyl)oxy]phenyl}carbamate]
[1]; Pharmacological Test Example 1
  IC50: < 10 nM
[2]; h-SCF 50 ng/ml
  IC50: 342 nM

## COc1cc2nccc(Oc3ccc(NC(=O)Oc4ccccc4C(C)(C)C)c(C)c3C)c2cc1OC [Example 302, 2-(Tert-butyl)phenyl N-{4-[(6,7-dimethoxy-4-quinolyl)oxy]-2,3-dimethylphenyl}carbamate]
[1]; Pharmacological Test Example 1
  IC50: 12 nM
[2]; h-SCF 50 ng/ml
  IC50: 202 nM

## CCCc1ccc(C(=O)NC(=S)Nc2ccc(Oc3ccnc4cc(OC)c(OC)cc34)cc2F)cc1 [Example 994, N-{4-[(6,7-Dimethoxy-4-quinolyl)oxy]-2-fluorophenyl}-N′-(4-propylbenzoyl)thiourea]
[1]
  IC50: 27 nM
[2]; figure in parentheses in −( )
  inhibition at 1 µM: 47%

## COc1cc2nccc(Oc3ccc(NC(=O)NC4CCN(Cc5ccccc5)CC4)cc3Cl)c2cc1OC [Example 644, N-(1-Benzyl-4-piperidyl)-N′-{3-chloro-4-[(6,7-dimethoxy-4-quinolyl)oxy]phenyl}urea]
[1]
  IC50: > 100 nM
  inhibition at 0.1 µM: 17%
[2]; [3]
  inhibition at 1 µM: 14%

## COc1cc2ncnc(Oc3ccc(NC(=O)OCc4ccc(C(C)(C)C)cc4)c(Cl)c3)c2cc1OC [Example 61, 4-(Tert-butyl)benzyl N-{2-chloro-4-[(6,7-dimethoxy-4-quinazolinyl)oxy]phenyl}carbamate]
[1]; Pharmacological Test Example 1
  IC50: 10 nM
[2]; figure in parentheses in −( )
  inhibition at 1 µM: 32%

## COc1cc2nccc(Oc3ccc(NC(=O)OC(C)c4ccccc4Cl)c(C)c3C)c2cc1OC (centres unmarked) [Example 14, 1-(2-Chlorophenyl)ethyl N-{4-[(6,7-dimethoxy-4-quinolyl)oxy]-2,3-dimethylphenyl}carbamate]
[1]; Pharmacological Test Example 1
  IC50: 12 nM
[2]; h-SCF 50 ng/ml
  IC50: 209 nM

## COc1cc(Oc2ncnc3cc(OC)c(OC)cc23)ccc1NC(=O)OCc1ccccc1Cl [Example 499, 2-Chlorobenzyl N-{4-[(6,7-dimethoxy-4-quinazolinyl)oxy]-2-methoxyphenyl}carbamate]
[1]
  IC50: < 10 nM
[2]; 50 ng/ml h-SCF
  IC50: 98 nM

## COc1cc2nccc(Oc3cc(C)c(NC(=O)OCCCOc4ccccc4OC)cc3C)c2cc1OC [Example 159, 3-(2-Methoxyphenoxy)propyl N-{4-[(6,7-dimethoxy-4-quinolyl)oxy]-2,5-dimethylphenyl}carbamate]
[1]; Pharmacological Test Example 1
  IC50: 52 nM
[2]; h-SCF 50 ng/ml
  IC50: 147 nM

## C=C(C)COC(=O)Nc1cc(C)c(Oc2ccnc3cc(OC)c(OC)cc23)cc1C [Example 405, 2-Methylallyl N-{4-[(6,7-dimethoxy-4-quinolyl)oxy]-2,5-dimethylphenyl}carbamate]
[1]
  IC50: 46 nM
[2]; 50 ng/ml h-SCF
  IC50: 126 nM

## COc1cc2ncnc(Oc3ccc(NC(=O)NC4CCN(Cc5ccc(C(C)(C)C)cc5)C4)cc3)c2cc1OC (centres unmarked) [Example 583, N-{1-[4-(Tert-butyl)benzyl]tetrahydro-1H-3-pyrrolyl}-N′-{4-[(6,7-dimethoxy-4-quinazolinyl)oxy]phenyl}urea]
[1]
  IC50: > 100 nM
  inhibition at 0.1 µM: 17%
[2]; [3]
  inhibition at 1 µM: 18%

## COc1cc2nccc(Oc3ccc(NC(=S)NC(=O)N4CCOCC4)cc3)c2cc1OC [Example 1045, N-{4-[(6,7-Dimethoxy-4-quinolyl)oxy]phenyl}-N′-morpholinocarbonylthiourea]
[1]
  IC50: 17 nM
[2]; h-SCF stimulation
  IC50: 193 nM

## COc1cc2nccc(Oc3ccc(NC(=S)NC(=O)N4CCc5ccccc5C4)cc3)c2cc1OC [Example 1130, N-{4-[(6,7-Dimethoxy-4-quinolyl)oxy]phenyl}-N′-(1,2,3,4-tetrahydro-2-isoquinolylcarbonyl)thiourea]
[1]
  IC50: < 10 nM
[2]; h-SCF stimulation
  IC50: 547 nM

## CCCCN(CCCC)C(C)CNC(=S)Nc1ccc(Oc2ncnc3cc(OC)c(OC)cc23)cc1 (centres unmarked) [Example 532, N-{4-[(6,7-Dimethoxy-4-quinazolinyl)oxy]phenyl}-N′-(2-dibutylaminopropyl)thiourea]
[1]
  IC50: > 100 nM
  inhibition at 0.1 µM: 44%
[2]; 50 ng/ml h-SCF
  IC50: 752 nM

## COc1cc2nccc(Oc3ccc(NC(=O)NC4CCN(Cc5ccccc5C)CC4)cc3)c2cc1OC [Example 568, N-{4-[(6,7-Dimethoxy-4-quinolyl)oxy]phenyl}-N′-[1-(2-methylbenzyl)-4-piperidyl]urea]
[1]
  IC50: > 100 nM
  inhibition at 0.1 µM: 28%
[2]; [3]
  inhibition at 1 µM: 31%

## COc1cc2nccc(Oc3ccc(NC(=O)NCCN4CCCCC4)c([N+](=O)[O-])c3)c2cc1OC [Example 678, N-{4-[(6,7-Dimethoxy-4-quinolyl)oxy]-2-nitrophenyl}-N′-(2-piperidinoethyl)urea]
[1]
  IC50: < 10 nM
[2]; 50 ng/ml h-SCF
  IC50: 164 nM

## COc1cc2nccc(Oc3ccc(NCCOc4cccc(C)c4)cc3C)c2cc1OC [Example 878, N-{4-[(6,7-Dimethoxy-4-quinolyl)oxy]-3-methylphenyl}-N-[2-(3-methylphenoxy)ethyl]amine]
[1]
  IC50: 19 nM
[2]; h-SCF stimulation
  IC50: 65 nM

## COc1cccc(C(C)OC(=O)Nc2ccc(Oc3ccnc4cc(OC)c(OC)cc34)cc2)c1 (centres unmarked) [Example 52, 1-(3-Methoxyphenyl)ethyl N-{4-[(6,7-dimethoxy-4-quinolyl)oxy]phenyl}carbamate]
[1]; Pharmacological Test Example 1
  IC50: < 10 nM
[2]; h-SCF 50 ng/ml
  IC50: 273 nM

## C=CCOC(=O)Nc1cc(C)c(Oc2ccnc3cc(OC)c(OC)cc23)cc1C [Example 373, Allyl N-{4-[(6,7-dimethoxy-4-quinolyl)oxy]-2,5-dimethylphenyl}carbamate]
[1]; Pharmacological Test Example 1
  IC50: 43 nM
[2]; h-SCF 50 ng/ml
  IC50: 71 nM

## CCCC(CCN1CCCCC1)OC(=O)Nc1ccc(Oc2ncnc3cc(OC)c(OC)cc23)cc1 (centres unmarked) [Example 448, 1-(2-Piperidinoethyl)butyl N-{4-[(6,7-dimethoxy-4-quinazolinyl)oxy]phenyl}carbamate]
[1]
  IC50: > 100 nM
  inhibition at 0.1 µM: 39%
[2]; [3]
  inhibition at 1 µM: 25%

## COc1cc2ncnc(Oc3ccc(NC(=S)NC(=O)c4ccc(C)nc4)cc3)c2cc1OC [Example 1154, N-{4-[(6,7-Dimethoxy-4-quinazolinyl)oxy]phenyl}-N′-[(6-methyl-3-pyridyl)carbonyl]thiourea]
[1]
  IC50: 49 nM
[2]; figure in parentheses in −( )
  inhibition at 1 µM: 21%

## COc1cc2ncnc(Oc3ccc(NC(=O)OCC4CCCC4)cc3)c2cc1OC [Example 397, Cyclopentylmethyl N-{4-[(6,7-dimethoxy-4-quinazolinyl)oxy]phenyl}carbamate]
[1]; Pharmacological Test Example 1
  IC50: < 10 nM
[2]; h-SCF 50 ng/ml
  IC50: 77 nM
